Data on 30 molecules can be found in US20100119599A1 (ARCHER PHARMACEUTICALS, INC., priority 2006, published 2010).

SMILES strings stand for the structures.

In one assay the test system is Aβ1-40. As to the kind of experiment: Measurement of Aβ1-40 in culture medium of 7W WT APP751 CHO cells by ELISA. It counts as cell-based, Chinese hamster. To be noted: for Aβ1-40 (% of control): CHO cells that overexpress APP751, zero = below the detection limit of the assay; for activity at 5 µM: Cricetulus griseus, Table 1, 5 μM test compound, CHO cells stably transfected with human APP751, culture medium, ELISA, control DMSO, 0 = no detectable amount.

A further assay relates to Aβ1-42. As to the kind of experiment: Measurement of Aβ1-42 in culture medium of 7W WT APP751 CHO cells by ELISA. It counts as cell-based, Chinese hamster. To be noted: for Aβ1-42 (% of control): CHO cells that overexpress APP751, zero = below the detection limit of the assay; for activity at 5 µM: Cricetulus griseus, Table 1, 5 μM test compound, CHO cells stably transfected with human APP751, culture medium, ELISA, control DMSO, 0 = no detectable amount, read-out: Aβ1-42 (% of control).
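Also: 5 µM test compound but RI-coded compounds at 10 µM for 24 hours.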

Take `CC1=C(C(=O)OC(C)(C)C)C(c2ccc(Cl)cc2)C(C#N)=C(SCC(=O)Nc2ccc(C)cc2)N1` (stereo not drawn) [ST051142, tert-butyl 4-(4-chlorophenyl)-5-cyano-2-methyl-6-{[N-(4-methylphenyl)carbamoyl]methylthio}-1,4-dihydropyridine-3-carboxylate]: the “Aβ1-40 (% of control)” value in the assay on Aβ1-40 is on record as 94.85 % of control. For the same molecule, in the assay with Aβ1-42, the “Aβ1-42 (% of control)” value is given as 46.06 % of control.

Consider `CC1=C(C(=O)OCC(C)C)C(c2cccc3ccccc23)C2=C(CCCC2=O)N1` (stereo not drawn) [ST052365, 2-methylpropyl 2-methyl-4-naphthyl-5-oxo-1,4,6,7,8-pentahydroquinoline-3-carboxylate], for which the figures for the activity at 5 µM in the assay with Aβ1-40 and in the assay with Aβ1-42 were 59.1% and 72.8%, respectively.

Take `CC1=C(C(=O)OCCOc2ccccc2)C(c2cccc(Cl)c2)C2=C(CCCC2=O)N1` (stereo not drawn) [ST015091, 2-phenoxyethyl 4-(3-chlorophenyl)-2-methyl-5-oxo-1,4,6,7,8-pentahydroquinoline-3-carboxylate]: the activity at 5 µM with Aβ1-40 came to 62.4%; in the assay on Aβ1-42, 75.8%.

Regarding `CCCCCOC(=O)C1=C(C)NC2=C(C(=O)CCC2)C1c1cc(Br)c(O)c(OC)c1` (stereo not drawn) [ST013170, pentyl 4-(3-bromo-4-hydroxy-5-methoxyphenyl)-2-methyl-5-oxo-1,4,6,7,8-pentahydroquinoline-3-carboxylate], the activity at 5 µM was 62.8% in the assay with Aβ1-40 and 49.8% in the assay on Aβ1-42.

Turning to `CCOC(=O)C1=C(C)NC2=C(C(=O)CC(c3ccc(OC)cc3)C2)C1c1ccccc1F` (stereo not drawn) [ST015256, ethyl 4-(2-fluorophenyl)-7-(4-methoxyphenyl)-2-methyl-5-oxo-1,4,6,7,8-pentahydroquinoline-3-carboxylate], the activity at 5 µM in the assay on Aβ1-40 was 69.8%; in the assay with Aβ1-42, 75.8%.

Consider `CC1=C(C(=O)OC2CCCCC2)C(c2cccc(Cl)c2Cl)C2=C(CCCC2=O)N1` (stereo not drawn) [ST013188, cyclohexyl 4-(2,3-dichlorophenyl)-2-methyl-5-oxo-1,4,6,7,8-pentahydroquinoline-3-carboxylate], for which the values for the activity at 5 µM in the assay on Aβ1-40 and with Aβ1-42 were 0% and 47.1%, respectively.

Take `COCCOC(=O)C1=C(C)NC2=C(C(=O)CC(c3ccc(Cl)cc3)C2)C1c1ccc(Br)cc1` (stereo not drawn) [ST016960, 2-methoxyethyl 4-(4-bromophenyl)-7-(4-chlorophenyl)-2-methyl-5-oxo-1,4,6,7,8-pentahydroquinoline-3-carboxylate]: the activity at 5 µM in the assay on Aβ1-40 amounted to 51.5%; with Aβ1-42, 76.4%.

As to `CC1=C(C(=O)OC2CCCCC2)C(c2ccccc2C(F)(F)F)C2=C(CCCC2=O)N1` (stereo not drawn) [ST014882, cyclohexyl 2-methyl-5-oxo-4-[2-(trifluoromethyl)phenyl]-1,4,6,7,8-pentahydroquinoline-3-carboxylate], the activity at 5 µM with Aβ1-40 is 39.5%; with Aβ1-42, 91.8%.

On to `CCOC(=O)C1=C(C)NC2=C(C(=O)CC(c3ccc(OC)cc3)C2)C1c1ccc(OCc2ccccc2)cc1` (stereo not drawn) [ST017078, ethyl 7-(4-methoxyphenyl)-2-methyl-5-oxo-4-[4-(phenylmethoxy)phenyl]-1,4,6,7,8-pentahydroquinoline-3-carboxylate], for which the activity at 5 µM amounted to 51.8% in the assay on Aβ1-40 and 49.4% in the assay on Aβ1-42.

Consider `CCOc1cc(C2C(C(=O)OCCOC)=C(C)NC3=C2C(=O)CC(c2ccccc2)C3)cc(Br)c1O` (stereo not drawn) [ST017060, 2-methoxyethyl4-(3-bromo-5-ethoxy-4-hydroxyphenyl)-2-methyl-5-oxo-7-phenyl-1,4,6,7,8-pentahydroquinoline-3-carboxylate], for which the activity at 5 µM in the assay on Aβ1-40 is 39%; with Aβ1-42, 61.7%.

With `CC1=C(C(=O)Nc2ccccc2)C(c2ccsc2)C(C#N)=C(SCC(=O)Nc2ccc(C(C)(C)C)cc2)N1` (stereo not drawn) [RI_64], the “Aβ1-40 (% of control)” value with Aβ1-40 is listed as 34.1 % of control. In the assay on Aβ1-42, the “Aβ1-42 (% of control)” value was 41.3 % of control.

`CC1=C(C(=O)OC(C)C)C(c2cccnc2)C2=C(CC(c3ccc(Cl)cc3)CC2=O)N1` (stereo not drawn) [ST017331, methylethyl 7-(4-chlorophenyl)-2-methyl-5-oxo-4-(3-pyridyl)-1,4,6,7,8-pentahydroquinoline-3-carboxylate]: the activity at 5 µM in the assay on Aβ1-40 came to 1.11%; in the assay on Aβ1-42 it was 0%.

In the case of `CC1=C(C(=O)Nc2ccc(Cl)cc2)C(c2ccccc2)C(C#N)=C(SCC(=O)Nc2ccc(C(C)C)cc2)N1` (stereo not drawn) [RI_54], the “Aβ1-40 (% of control)” value in the assay with Aβ1-40 is 45.89 % of control. Moreover, the “Aβ1-42 (% of control)” value with Aβ1-42 is recorded as 52.6 % of control.

As to `CSc1ccc(C2C(C(=O)OCCOc3ccccc3)=C(C)NC3=C2C(=O)CCC3)cc1` (stereo not drawn) [ST015072, 2-phenoxyethyl 2-methyl-4-(4-methylthiophenyl)-5-oxo-1,4,6,7,8-pentahydroquinoline-3-carboxylate], the activity at 5 µM was 19.3% with Aβ1-40 and 59.4% with Aβ1-42.

`CC1=C(C(=O)OCC(C)C)C(c2cccc(Cl)c2)C2=C(CC(c3ccccc3)CC2=O)N1` (stereo not drawn) [ST016969, 2-methylpropyl 4-(3-chlorophenyl)-2-methyl-5-oxo-7-phenyl-1,4,6,7,8-pentahydroquinoline-3-carboxylate]: the activity at 5 µM with Aβ1-40 was found to be 30.3%; in the assay with Aβ1-42, 60.2%.

With `CC1=C(C(=O)OC(C)C)C(c2ccccc2)C2=C(CC(c3ccccc3)CC2=O)N1` (stereo not drawn) [ST017212, methylethyl 2-methyl-5-oxo-4,7-diphenyl-1,4,6,7,8-pentahydroquinoline-3-carboxylate], the activity at 5 µM was determined as 25.4% with Aβ1-40 and 57.1% with Aβ1-42.

Consider `CSC1=C(C#N)C(c2ccc(Cl)cc2)C(C(=O)OC(C)(C)C)=C(C)N1` (stereo not drawn) [ST050983, tert-butyl 4-(4-chlorophenyl)-5-cyano-2-methyl-6-methylthio-1,4-dihydropyridine-3-carboxylate], for which the “Aβ1-40 (% of control)” value in the assay on Aβ1-40 is reported as 51.3 % of control. Further, the “Aβ1-42 (% of control)” value in the assay on Aβ1-42 is 0 % of control.

For `CCCOc1ccccc1C1C(C(=O)OCC(C)C)=C(C)NC2=C1C(=O)CC(c1ccccc1)C2` (stereo not drawn) [ST016984, 2-methylpropyl 2-methyl-5-oxo-7-phenyl-4-(2-propoxyphenyl)-1,4,6,7,8-pentahydroquinoline-3-carboxylate], the activity at 5 µM in the assay on Aβ1-40 is 25.4%; in the assay with Aβ1-42, 56.2%.

Turning to `COC(=O)C1=C(C)NC2=C(C(=O)CC(c3cccs3)C2)C1c1cc(OC)ccc1OC` (stereo not drawn) [ST052389, methyl 4-(2,5-dimethoxyphenyl)-2-methyl-5-oxo-7-(2-thienyl)-1,4,6,7,8-pentahydroquinoline-3-carboxylate], the activity at 5 µM worked out at 78.3% in the assay with Aβ1-40 and 44.9% with Aβ1-42.

Consider `COCCOC(=O)C1=C(C)NC2=C(C(=O)CC(c3ccccc3)C2)C1c1ccc([N+](=O)[O-])cc1` (stereo not drawn) [ST017027, 2-methoxyethyl 2-methyl-4-(4-nitrophenyl)-5-oxo-7-phenyl-1,4,6,7,8-pentahydroquinoline-3-carboxylate], for which the values for the activity at 5 µM with Aβ1-40 and with Aβ1-42 were 35.1% and 82.1%, respectively.

As to `CCOC(=O)C1=C(C)NC2=C(C(=O)CCC2)C1c1ccc(Cl)cc1Cl` (stereo not drawn) [ST024444, ethyl 4-(2,4-dichlorophenyl)-2-methyl-5-oxo-1,4,6,7,8-pentahydroquinoline-3-carboxylate], the activity at 5 µM in the assay on Aβ1-40 was determined as 37.4%; in the assay with Aβ1-42 it was 16.6%.

In the case of `COC(=O)C1=C(C)NC2=C(C(=O)CC(c3ccc(Cl)cc3)C2)C1c1ccccc1F` (stereo not drawn) [ST015216, methyl 7-(4-chlorophenyl)-4-(2-fluorophenyl)-2-methyl-5-oxo-1,4,6,7,8-pentahydroquinoline-3-carboxylate], the activity at 5 µM was determined as 68.4% in the assay on Aβ1-40 and 93.2% with Aβ1-42.

In the case of `COC(=O)C1=CN(CC2CCCO2)C=C(C(=O)OC)C1c1cccc(Br)c1` (stereo not drawn) [ST051569, methyl 4-(3-bromophenyl)-5-(methoxycarbonyl)-1-(oxolan-2-ylmethyl)-1,4-dihydropyridine-3-carboxylate], in the assay with Aβ1-40, the “Aβ1-40 (% of control)” value is on record as 49.02 % of control. Moreover, the “Aβ1-42 (% of control)” value in the assay with Aβ1-42 was 72.77 % of control.

Regarding `CCOC(=O)C1=C(C)NC(C)=C(C(=O)OCC)C1c1ccc(F)cc1` [ST211500, ethyl 5-(ethoxycarbonyl)-4-(4-fluorophenyl)-2,6-dimethyl-1,4-dihydropyridine-3-carboxylate], in the assay on Aβ1-40, the “Aβ1-40 (% of control)” value is 20.67 % of control. In addition, in the assay with Aβ1-42, the “Aβ1-42 (% of control)” value was 19.53 % of control.

As for `N#CC1=C(N)N2C(=O)C(Cc3ccc(Br)cc3)SC2=C(C#N)C1c1ccc(Br)cc1` (stereo not drawn) [RI_97], in the assay with Aβ1-40, the “Aβ1-40 (% of control)” value is 76.7 % of control. The “Aβ1-42 (% of control)” value with Aβ1-42 is listed as 74.9 % of control.

On to `CC1=C(C(=O)Nc2ccccc2)C(c2ccsc2)C(C#N)=C(SCC(=O)Nc2ccc(C)cc2)N1` (stereo not drawn) [RI_49], for which the “Aβ1-40 (% of control)” value in the assay with Aβ1-40 is recorded as 40.9 % of control. Also, in the assay with Aβ1-42, the “Aβ1-42 (% of control)” value is on record as 37.7 % of control.

Turning to `COC(=O)C1=C(C)NC2=C(C(=O)CCC2)C1c1cc(F)ccc1F` (stereo not drawn) [ST052368, methyl 4-(2,5-difluorophenyl)-2-methyl-5-oxo-1,4,6,7,8-pentahydroquinoline-3-carboxylate], the activity at 5 µM in the assay on Aβ1-40 stood at 66.3%; with Aβ1-42 it was 74.2%.

Regarding `CCCCOC(=O)C1=C(C)NC2=C(C(=O)CC(C)(C)C2)C1c1cc2c(cc1[N+](=O)[O-])OCO2` (stereo not drawn) [ST216053, butyl 2,7,7-trimethyl-4-(6-nitro(2H-benzo[d]1,3-dioxolen-5-yl))-5-oxo-1,4,6,7,8-pentahydroquinoline-3-carboxylate], the activity at 5 µM in the assay on Aβ1-40 came out at 22.2%; in the assay on Aβ1-42, 6.37%.

On to `CC1=C(C(=O)OCCOc2ccccc2)C(c2cccc(O)c2)C2=C(CC(c3ccccc3)CC2=O)N1` (stereo not drawn) [ST017315, 2-phenoxyethyl 4-(3-hydroxyphenyl)-2-methyl-5-oxo-7-phenyl-1,4,6,7,8-pentahydroquinoline-3-carboxylate], for which the activity at 5 µM amounted to 43.8% with Aβ1-40 and 53.9% in the assay with Aβ1-42.

On to `CC1=C(C(=O)OCC(C)C)C(c2ccccc2F)C2=C(CC(c3cccs3)CC2=O)N1` (stereo not drawn) [ST051566, 2-methylpropyl 4-(2-fluorophenyl)-2-methyl-5-oxo-7-(2-thienyl)-1,4,6,7,8-pentahydroquinoline-3-carboxylate], for which the activity at 5 µM in the assay on Aβ1-40 is 63.4%; in the assay on Aβ1-42 it was 96.1%.
